Our source for the IC50 values is BindingDB's records for doi:10.7270/Q25H7DV5 (Burnham Center For Chemical Genomics, 2011).

The assay concerns the target DNA dC->dU-editing enzyme APOBEC-3G (Homo sapiens, UniProt Q9HC16). The assay can be described thus: APOBEC3G deaminase inhibitors, SAR follow-up, biochemical, fluorescence, single-stranded DNA substrate (AID 602136). The settings on record: 25 °C.

Sequence of DNA dC->dU-editing enzyme APOBEC-3G (Q9HC16 whole entry): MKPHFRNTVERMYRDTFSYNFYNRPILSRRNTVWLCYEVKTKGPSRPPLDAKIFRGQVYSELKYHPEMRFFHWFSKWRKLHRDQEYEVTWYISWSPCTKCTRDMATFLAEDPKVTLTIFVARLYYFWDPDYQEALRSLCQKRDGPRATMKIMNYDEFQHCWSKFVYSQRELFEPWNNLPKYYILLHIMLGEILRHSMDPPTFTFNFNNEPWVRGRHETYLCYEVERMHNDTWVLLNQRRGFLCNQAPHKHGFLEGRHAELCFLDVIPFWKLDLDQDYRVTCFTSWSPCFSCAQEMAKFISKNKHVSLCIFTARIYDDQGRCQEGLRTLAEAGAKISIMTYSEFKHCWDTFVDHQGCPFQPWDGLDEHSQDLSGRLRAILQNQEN

In turn, `CCN1C(SCC(=O)NCc2ccco2)=NNC1=C1C=CC=CC1=O` yielded an IC50 above 99 µM.
Then `CC1(C)Oc2ccc3ccc(=O)oc3c2C(CN=O)=C1Cl` [9-chloro-2-keto-8,8-dimethyl-pyrano[2,3-f]chromene-10-carbaldehyde oxime], with above 99 µM.

The term IC50 denotes the concentration that gives 50% inhibition. Read a high IC50 as a need for much substance.
